# Measurements as given in patent US20240132511A1, “TREATMENTS OF PRADER-WILLI SYNDROME” (Neuren Pharmaceuticals Limited, priority 2021, published 2024).
# Experiments:
# [1] = system: Magel2-null mice; experiment: Partition test of social preference; assay type: in vivo, mouse; parameters: key: **** = p < 0.0001; ns = not significant
# Excerpt: (§1) The mouse locus 7qB4/B5 (syntenic with the Prader-Willi region at chromosome position 15q11-q13 in humans) encompasses the cluster of paternally-expressed imprinted genes Magel2, Ndn, Mkrn3, and Peg12. As maternal imprinting silences the Magel2 allele, only the paternally inherited Magel2 allele is expressed. Heterozygous females were bred with wild-type males (or C57BL/6J inbred males) to maintain the line; as the resulting offspring will have no abnormal phenotype. To obtain “Magel2-null” offspring (both maternal and paternal Magel2 alleles are non-functional), wild-type females are bred with heterozygous males; allowing maternal transmission of the imprinted/silenced wild-type allele and paternal transmission of the Magel2-lacZ (null) allele. Magel2-null mice have disrupted circadian rhythm and metabolism, total activity, food consumption, weight before weaning, and fertility in both sexes, as well as increased adiposity after weaning and altered behavior. Magel2-null mice on this C57BL/6J genetic background recapitulate Prader-Willi syndrome. Because the genetic mutation in the Magel2-null animals is the same as the mutation in human beings, studies in Magel2-null mice are reasonably predictive of effects of compounds in human beings.
# (§2) In vivo experiments were conducted in C57BL/6-Magel2tm1Stw/J (Magel2-null) mice at age P60 and their wild-type littermates during the light phase (littermates that were wild-type for Magel2 were used as controls). Ten mice per treatment group were used for studies 1 and 2, and six mice per group for study 3. In study 1: C57BL/6-Magel2tm1Stw/J (Magel2-null) mice were assessed on behavioral assays. Study 2 tested the efficacy of cG-2-AllylP in treating obesity and insulin levels in Magel2-null mice. Study 3 tested the IGF-1 level in Magel2-null mice. Because human beings have the same genetic abnormality, studies of Magel2-null mice are reasonably predictive of effects of compounds of Formulas I, II, III and IV in human beings with Prader-Willi Syndrome.
# (§3) Testing was performed during the light phase of the circadian cycle, with the order of testing being determined by the principle of conducting the most stressful tests last. Assays were designed to reproduce and expand on the original behavioral characterization of Magel2-null mice. Magel2-null and wild-type control mice were dosed once daily for 6 weeks prior to testing and tested 30 minutes following a dose of cG-2-AllylP (NNZ2591). Study groups and the treatment matrix are described in Table 2 below.
# People with Prader-Willi Syndrome show deficits in social behavior compared with people without Prader-Willi Syndrome. Two tests were carried out to assess the social behavior deficits of Magel2-null mice.
# The partition test of social preference measures the preference shown for an object versus a familiar mouse.
# [2] = system: Magel2-null mice; experiment: Open Field hypoactivity (distance travelled, time spent active); assay type: in vivo, mouse; parameters: key: **** = p < 0.0001; ns = not significant
# Excerpt: as §1, §2, §3
# To evaluate whether cG-2-AllylP is effective to treat the hypoactivity in PWS, Open Field studies were carried out.
# The relative distance travelled or time spent active is shown on the vertical axis, and the mean of each treatment group is shown on the horizontal axis. Wild-type (WT) mice treated with vehicle alone (left column) were considered to travel 100% or to have 100% activity.
# [3] = Magel2-null + Vehicle vs. Magel2-null + NNZ2591 (100 mg/kg)
# [4] = Magel2-null + Vehicle vs. Magel2-null + NNZ2591 (200 mg/kg)
# [5] = WT + NNZ2591 (100 mg/kg) vs. Magel2-null + NNZ2591 (100 mg/kg)
# [6] = WT + NNZ2591 (100 mg/kg) vs. Magel2-null + NNZ2591 (200 mg/kg)
# [7] = WT + NNZ2591 (200 mg/kg) vs. Magel2-null + NNZ2591 (200 mg/kg)
# [8] = WT + Vehicle vs. WT + NNZ2591 (100 mg/kg)
# [9] = WT + Vehicle vs. WT + NNZ2591 (200 mg/kg)
compound,measurement,setting,value
"C=CCC12CCCN1C(=O)CNC2=O [cG-2-AllylP, (8aS)-Allyl-hexahydropyrrolo[1,2-a]pyrazine-1,4-dione]","Social preference, Sidak's multiple comparisons test, Summary",[1]; [3],**** (**** = p < 0.0001)
same,"Social preference, Sidak's multiple comparisons test, Summary",[1]; [4],**** (**** = p < 0.0001)
same,"Social preference, Sidak's multiple comparisons test, Summary",[1]; [5],ns
same,"Social preference, Sidak's multiple comparisons test, Summary",[1]; [6],ns
same,"Social preference, Sidak's multiple comparisons test, Summary",[1]; [7],ns
same,"Social preference, Sidak's multiple comparisons test, Summary",[1]; [8],ns
same,"Social preference, Sidak's multiple comparisons test, Summary",[1]; [9],ns
same,"Open Field (Hypoactivity) - Motility, Sidak's multiple comparisons test, Summary",[2]; Magel2-null + NNZ2591 (100 mg/kg) vs. Magel2-null + NNZ2591 (200 mg/kg),ns
same,"Open Field (Hypoactivity) - Distance travelled, Sidak's multiple comparison test, Summary",[2]; [3],**** (**** = p < 0.0001)
same,"Open Field (Hypoactivity) - Distance travelled, Sidak's multiple comparison test, Summary",[2]; [4],**** (**** = p < 0.0001)
same,"Open Field (Hypoactivity) - Motility, Sidak's multiple comparisons test, Summary",[2]; [4],**** (**** = p < 0.0001)
same,"Open Field (Hypoactivity) - Motility, Sidak's multiple comparisons test, Summary",[2]; Magel2-null + Vehicle vs. WT + NNZ2591 (100 mg/kg),**** (**** = p < 0.0001)
same,"Open Field (Hypoactivity) - Distance travelled, Sidak's multiple comparison test, Summary",[2]; [5],ns
same,"Open Field (Hypoactivity) - Motility, Sidak's multiple comparisons test, Summary",[2]; [5],ns
same,"Open Field (Hypoactivity) - Distance travelled, Sidak's multiple comparison test, Summary",[2]; [6],ns
same,"Open Field (Hypoactivity) - Distance travelled, Sidak's multiple comparison test, Summary",[2]; [7],ns
same,"Open Field (Hypoactivity) - Motility, Sidak's multiple comparisons test, Summary",[2]; [7],ns
same,"Open Field (Hypoactivity) - Distance travelled, Sidak's multiple comparison test, Summary",[2]; [8],ns
same,"Open Field (Hypoactivity) - Motility, Sidak's multiple comparisons test, Summary",[2]; [8],ns
same,"Open Field (Hypoactivity) - Distance travelled, Sidak's multiple comparison test, Summary",[2]; [9],ns
same,"Open Field (Hypoactivity) - Motility, Sidak's multiple comparisons test, Summary",[2]; [9],ns
